Measurements from USRE48253E1, “Methotrexate adjuvants to reduce toxicity and methods for using the same” (Tosk, Inc., priority 2008, dated 2020).
Entries after “also recorded” stand apart in the source; their conditions may differ.

Tested on: AS283 cells
Assay: Cell Culture Study II: MTX cytotoxicity, CellTiter-Glo
Format: cell-based, human
Settings: TK-112690 1, 10, 100 μM with MTX 0.01-100 μM, 72 hours
Method: In this study, AS283 cells were grown in RPMI-1640 supplemented with L-glutamine dipeptide, sodium pyruvate, HEPES, and 10% FBS. AS283 cells were used to seed three 96-well plates with 10,000 cells/well in a total volume of 50 μL. Medium alone wells were seeded 100 μL medium. Plates were incubated overnight. The following day, 25 μL of the TK-112690 and MTX stock solutions were added to the appropriate wells. TK-112690 was added first, followed by MTX in all wells. 25 μL of vehicle was added to TK-112690 alone wells. 25 μL of vehicle and 25 μL medium were added to vehicle control wells, and 50 μL medium was added to cell control wells. Cell viability was measured using CellTiter-Glo and DOX (10 μM) was used as a reference standard. The plates were incubated at 37° C., 5% CO2 for 72 hours then removed from the incubator and placed on the bench at room temperature for 30 min. The plates were not stacked or shaken. […] Luminescence was recorded on TriLux. […]
AS283 cells were grown in RPMI-1640 supplemented with L-glutamine dipeptide, sodium pyruvate, HEPES, and 10% FBS. […] Cell viability was measured using CellTiter-Glo and DOX (10 μM) was used as a reference standard.
The plates were incubated at 37° C., 5% CO2 for 72 hours then removed from the incubator and placed on the bench at room temperature for 30 min. […] Luminescence was recorded on TriLux.

Cc1cn2c(nc1=O)O[C@H]1[C@H](O)[C@@H](CO)O[C@H]12 [TK-112690, 2,2′-anhydro-5-methyluridine]
effect on antiproliferative activity (cytotoxicity) of MTX: did not diminish the cytotoxicity of MTX; also recorded: not altered
